Reference: paper PMC5218480 (PLoS ONE, 2017)

System: MV-4-11 cells
Test: Gene expression microarray analysis (Affymetrix PrimeView) and GSEA
Type: cell-based, human
Set-up: RFU PODN (11730768_x_at) / Fold change /veh PODN (11730768_x_at) / RFU LINC00158 (11744669_a_at) / Fold change /veh LINC00158 (11744669_a_at) / RFU DUSP10 (11751237_a_at) / Fold change /veh DUSP10 (11751237_a_at) / RFU ID3 (11757404_x_at) / Fold change /veh ID3 (11757404_x_at) / RFU PLEKHG5 (11737974_s_at) / Fold change /veh PLEKHG5 (11737974_s_at) / RFU LRRC4B (11730491_at) / Fold change /veh LRRC4B (11730491_at) / RFU GIMAP4 (11747438_a_at) / Fold change /veh GIMAP4 (11747438_a_at) / RFU KRT8 (11758183_x_at) / Fold change /veh KRT8 (11758183_x_at) / RFU CNN1 (11734310_a_at) / Fold change /veh CNN1 (11734310_a_at) / RFU VPS37D (11726825_at) / Fold change /veh VPS37D (11726825_at) / RFU C10orf10 (11716522_x_at) / Fold change /veh C10orf10 (11716522_x_at) / RFU KIR2DL2 /// KIR2DL4 /// KIR2DL5A /// KIR2DL5B /// KIR2DS1 /// KIR2DS2 /// KIR2DS3 /// KIR2DS4 /// KIR3DL3 /// KIR3DL3 /// KIR3DS1 (11738374_at) / Fold change /veh KIR2DL2 /// KIR2DL4 /// KIR2DL5A /// KIR2DL5B /// KIR2DS1 /// KIR2DS2 /// KIR2DS3 /// KIR2DS4 /// KIR3DL3 /// KIR3DL3 /// KIR3DS1 (11738374_at) / RFU C1QL1 (11718748_at) / Fold change /veh C1QL1 (11718748_at) / RFU TMPRSS4 (11747572_a_at) / Fold change /veh TMPRSS4 (11747572_a_at) / RFU HAMP (11756126_x_at) / Fold change /veh HAMP (11756126_x_at) / RFU RNFT2 (11725882_a_at) / Fold change /veh RNFT2 (11725882_a_at) / RFU NR4A2 (11747474_a_at) / Fold change /veh NR4A2 (11747474_a_at) / RFU ABCC12 (11746883_a_at) / Fold change /veh ABCC12 (11746883_a_at) / RFU TMEM136 (11760407_x_at) / Fold change /veh TMEM136 (11760407_x_at) / RFU CLDN22 /// WWC2 (11732394_at) / Fold change /veh CLDN22 /// WWC2 (11732394_at) / RFU HLA-DPB1 (11760878_x_at) / Fold change /veh HLA-DPB1 (11760878_x_at) / RFU SPINT1 (11716480_a_at) / Fold change /veh SPINT1 (11716480_a_at) / RFU GAP43 (11754022_s_at) / Fold change /veh GAP43 (11754022_s_at) / RFU A4GNT (11735810_at) / Fold change /veh A4GNT (11735810_at) / RFU PRB3 (11715151_x_at) / Fold change /veh PRB3 (11715151_x_at) / RFU TUBB4B (11761932_at) / Fold change /veh TUBB4B (11761932_at) / RFU CAPN14 (11732068_a_at) / Fold change /veh CAPN14 (11732068_a_at) / RFU TMCC2 (11721928_a_at) / Fold change /veh TMCC2 (11721928_a_at) / RFU IRGQ (11745062_a_at) / Fold change /veh IRGQ (11745062_a_at) / RFU FAM174B (11720279_a_at) / Fold change /veh FAM174B (11720279_a_at) / RFU TMPRSS4 (11748680_a_at) / Fold change /veh TMPRSS4 (11748680_a_at) / RFU FAM212B (11763350_a_at) / Fold change /veh FAM212B (11763350_a_at) / RFU PLEKHG5 (11743358_a_at) / Fold change /veh PLEKHG5 (11743358_a_at) / RFU ZSCAN30 (11745921_a_at) / Fold change /veh ZSCAN30 (11745921_a_at) / RFU CMKLR1 (11741424_a_at) / Fold change /veh CMKLR1 (11741424_a_at) / RFU LOC101060620 /// MAPK8IP1 (11723275_at) / Fold change /veh LOC101060620 /// MAPK8IP1 (11723275_at) / RFU SPTSSB (11747773_x_at) / Fold change /veh SPTSSB (11747773_x_at) / RFU PRSS12 (11739890_at) / Fold change /veh PRSS12 (11739890_at) / RFU BIN1 (11741810_x_at) / Fold change /veh BIN1 (11741810_x_at) / RFU WNT11 (11732464_a_at) / Fold change /veh WNT11 (11732464_a_at) / RFU C10orf10 (11716521_a_at) / Fold change /veh C10orf10 (11716521_a_at) / RFU C5orf56 (11738089_at) / Fold change /veh C5orf56 (11738089_at) / RFU CYB561 (11721691_x_at) / Fold change /veh CYB561 (11721691_x_at) / RFU ANKRD19P (11752326_a_at) / Fold change /veh ANKRD19P (11752326_a_at) / RFU OR2T12 /// OR2T33 /// OR2T8 (11738714_s_at) / Fold change /veh OR2T12 /// OR2T33 /// OR2T8 (11738714_s_at) / RFU VCAN (11748164_a_at) / Fold change /veh VCAN (11748164_a_at) / RFU JSRP1 (11732532_at) / Fold change /veh JSRP1 (11732532_at) / RFU KRTAP10-11 (11738290_x_at) / Fold change /veh KRTAP10-11 (11738290_x_at) / RFU MYO3A (11730013_a_at) / Fold change /veh MYO3A (11730013_a_at) / RFU EBF3 (11725865_a_at) / Fold change /veh EBF3 (11725865_a_at) / RFU CAMK2N1 (11719241_x_at) / Fold change /veh CAMK2N1 (11719241_x_at) / RFU C5orf56 (11738088_a_at) / Fold change /veh C5orf56 (11738088_a_at) / RFU OLFML3 (11715873_a_at) / Fold change /veh OLFML3 (11715873_a_at) / RFU LOC100653217 /// NTM (11731650_a_at) / Fold change /veh LOC100653217 /// NTM (11731650_a_at) / RFU MAPK11 (11762145_a_at) / Fold change /veh MAPK11 (11762145_a_at) / RFU FIZ1 (11724087_x_at) / Fold change /veh FIZ1 (11724087_x_at) / RFU OASL (11726364_x_at) / Fold change /veh OASL (11726364_x_at) / RFU SOX15 (11748057_x_at) / Fold change /veh SOX15 (11748057_x_at) / RFU CD79A (11719716_a_at) / Fold change /veh CD79A (11719716_a_at) / RFU HIST1H1D (11736915_at) / Fold change /veh HIST1H1D (11736915_at) / RFU CASKIN2 (11723855_a_at) / Fold change /veh CASKIN2 (11723855_a_at) / RFU LOC730098 (11760151_x_at) / Fold change /veh LOC730098 (11760151_x_at) / RFU OR4N2 (11742367_at) / Fold change /veh OR4N2 (11742367_at) / RFU PRRT2 (11749266_a_at) / Fold change /veh PRRT2 (11749266_a_at) / RFU SNX32 (11753110_a_at) / Fold change /veh SNX32 (11753110_a_at) / RFU CDHR5 (11726645_a_at) / Fold change /veh CDHR5 (11726645_a_at) / RFU RCAN1 (11760418_a_at) / Fold change /veh RCAN1 (11760418_a_at) / RFU FAM167A (11723789_a_at) / Fold change /veh FAM167A (11723789_a_at) / RFU FAM26E (11764081_at) / Fold change /veh FAM26E (11764081_at) / RFU ISYNA1 (11749810_s_at) / Fold change /veh ISYNA1 (11749810_s_at) / RFU ACY1 (11761880_at) / Fold change /veh ACY1 (11761880_at) / RFU 11764098_at / Fold change /veh 11764098_at / RFU SAMD14 (11745864_x_at) / Fold change /veh SAMD14 (11745864_x_at) / RFU NPB (11741838_a_at) / Fold change /veh NPB (11741838_a_at) / RFU TMPRSS6 (11731388_a_at) / Fold change /veh TMPRSS6 (11731388_a_at) / RFU KRTAP10-2 (11738614_at) / Fold change /veh KRTAP10-2 (11738614_at) / RFU ARHGAP8 /// PRR5-ARHGAP8 (11727945_x_at) / Fold change /veh ARHGAP8 /// PRR5-ARHGAP8 (11727945_x_at) / RFU KRTAP5-7 /// NADSYN1 (11734609_at) / Fold change /veh KRTAP5-7 /// NADSYN1 (11734609_at) / RFU RASL12 (11751679_a_at) / Fold change /veh RASL12 (11751679_a_at) / RFU CDKN2B (11736163_a_at) / Fold change /veh CDKN2B (11736163_a_at) / RFU PRF1 (11729649_at) / Fold change /veh PRF1 (11729649_at) / RFU, ZNF638 /// ZNF638-IT1 / Fold change vs veh, ZNF638 /// ZNF638-IT1 / RFU, PANK3 / Fold change vs veh, PANK3 / RFU, SH3YL1 / Fold change vs veh, SH3YL1 / RFU, ZEB2 / Fold change vs veh, ZEB2 / RFU, NRIP1 / Fold change vs veh, NRIP1 / RFU, PTTG1IP / Fold change vs veh, PTTG1IP / RFU, CAPN2 / Fold change vs veh, CAPN2 / RFU, MED14 / Fold change vs veh, MED14 / RFU, SNORA58 / Fold change vs veh, SNORA58 / RFU, C1orf63 / Fold change vs veh, C1orf63 / RFU, LRRFIP1 / Fold change vs veh, LRRFIP1 / RFU, NDUFAF7 / Fold change vs veh, NDUFAF7 / RFU, SLC12A2 / Fold change vs veh, SLC12A2 / RFU, IBTK / Fold change vs veh, IBTK / RFU, ESF1 / Fold change vs veh, ESF1 / Fold change vs veh, TMEM50B / RFU, TAOK1 / Fold change vs veh, TAOK1 / RFU, ACBD3 / Fold change vs veh, ACBD3 / RFU, TMA16 / Fold change vs veh, TMA16 / RFU, RWDD3 / Fold change vs veh, RWDD3 / RFU, BCAT1 / Fold change vs veh, BCAT1 / RFU, EDEM3 / Fold change vs veh, EDEM3 / RFU, TMEM33 / Fold change vs veh, TMEM33 / RFU, WDR75 / Fold change vs veh, WDR75 / RFU, AHCTF1 / Fold change vs veh, AHCTF1 / RFU, TFRC / Fold change vs veh, TFRC / RFU, ZDHHC17 / Fold change vs veh, ZDHHC17 / RFU, NOM1 / Fold change vs veh, NOM1 / RFU, ARL8B / Fold change vs veh, ARL8B / RFU, ZBTB11 / Fold change vs veh, ZBTB11 / RFU, TAMM41 / Fold change vs veh, TAMM41 / RFU, KIAA1704 /// LOC100996395 / Fold change vs veh, KIAA1704 /// LOC100996395 / RFU, ING1 / Fold change vs veh, ING1 / RFU, TRMT61B / Fold change vs veh, TRMT61B / RFU, FUBP3 / Fold change vs veh, FUBP3 / RFU, TP53 / Fold change vs veh, TP53 / RFU, TNKS2 / Fold change vs veh, TNKS2 / RFU, ZFP14 / Fold change vs veh, ZFP14 / RFU, ACTR2 / Fold change vs veh, ACTR2 / RFU, PPP3R1 / Fold change vs veh, PPP3R1 / RFU, PIK3R1 / Fold change vs veh, PIK3R1 / RFU, HNRNPA1 / Fold change vs veh, HNRNPA1 / RFU, RNF170 / Fold change vs veh, RNF170 / RFU, ZNF28 / Fold change vs veh, ZNF28 / RFU, RNGTT / Fold change vs veh, RNGTT / RFU, OGT / Fold change vs veh, OGT / RFU, BRD1 / Fold change vs veh, BRD1 / RFU, MARS / Fold change vs veh, MARS / RFU, ZNF655 / Fold change vs veh, ZNF655 / RFU, FAHD1 / Fold change vs veh, FAHD1 / RFU, BDP1 / Fold change vs veh, BDP1 / RFU, LRRCC1 / Fold change vs veh, LRRCC1 / RFU, ARID1A / Fold change vs veh, ARID1A / RFU, ZNF146 / Fold change vs veh, ZNF146 / RFU, ZNF330 / Fold change vs veh, ZNF330 / RFU, GPN3 / Fold change vs veh, GPN3 / RFU, C9orf123 / Fold change vs veh, C9orf123 / RFU, N4BP2L2 / Fold change vs veh, N4BP2L2 / RFU, ARFIP1 / Fold change vs veh, ARFIP1 / RFU, FAM179B / Fold change vs veh, FAM179B / RFU, BCL10 / Fold change vs veh, BCL10 / RFU, UHRF1BP1L / Fold change vs veh, UHRF1BP1L / RFU, BET1 / Fold change vs veh, BET1 / RFU, CNOT2 / Fold change vs veh, CNOT2 / RFU, ZNF268 / Fold change vs veh, ZNF268 / Fold change vs veh, ZNF507 / RFU, DGCR2 / Fold change vs veh, DGCR2 / RFU, WDSUB1 / Fold change vs veh, WDSUB1 / Fold change vs veh, HSP90B1 /// MIR3652 / RFU, ADSS / Fold change vs veh, ADSS / RFU, GK / Fold change vs veh, GK / RFU, ZNF148 / Fold change vs veh, ZNF148 / RFU, TAF9 / Fold change vs veh, TAF9 / RFU, SLC1A5 / Fold change vs veh, SLC1A5 / RFU, SLMO2 / Fold change vs veh, SLMO2 / RFU, ABCC4 / Fold change vs veh, ABCC4 / RFU, LOC101060439 /// RAP1B / Fold change vs veh, LOC101060439 /// RAP1B / RFU, RFX7 / Fold change vs veh, RFX7 / RFU, GTPBP10 / Fold change vs veh, GTPBP10 / RFU, CNEP1R1 / Fold change vs veh, CNEP1R1 / RFU, BIVM-ERCC5 /// ERCC5 / Fold change vs veh, BIVM-ERCC5 /// ERCC5 / RFU, ILF3 / Fold change vs veh, ILF3 / RFU 11762660_at / Fold change /veh 11762660_at / RFU VCAN (11757783_s_at) / Fold change /veh VCAN (11757783_s_at) / RFU DDX43 (11728927_at) / Fold change /veh DDX43 (11728927_at) / RFU KRT8 (11758188_x_at) / Fold change /veh KRT8 (11758188_x_at) / RFU NKD1 (11759106_at) / Fold change /veh NKD1 (11759106_at) / RFU SRD5A1 (11742802_a_at) / Fold change /veh SRD5A1 (11742802_a_at) / RFU TPSAB1 /// TPSB2 (11721975_s_at) / Fold change /veh TPSAB1 /// TPSB2 (11721975_s_at) / RFU GSTM3 (11746129_a_at) / Fold change /veh GSTM3 (11746129_a_at) / RFU IL23R (11737362_x_at) / Fold change /veh IL23R (11737362_x_at) / RFU TMEM51 (11727254_a_at) / Fold change /veh TMEM51 (11727254_a_at) / RFU PIWIL2 (11732686_x_at) / Fold change /veh PIWIL2 (11732686_x_at) / RFU ORM1 (11744905_x_at) / Fold change /veh ORM1 (11744905_x_at) / RFU CCDC152 (11743942_at) / Fold change /veh CCDC152 (11743942_at) / RFU ECM1 (11717891_a_at) / Fold change /veh ECM1 (11717891_a_at) / RFU IL23R (11748794_a_at) / Fold change /veh IL23R (11748794_a_at) / RFU TNFAIP8L3 (11732012_x_at) / Fold change /veh TNFAIP8L3 (11732012_x_at) / RFU MBOAT4 (11741988_at) / Fold change /veh MBOAT4 (11741988_at) / RFU 11764193_at / Fold change /veh 11764193_at / RFU TMEM53 (11763286_at) / Fold change /veh TMEM53 (11763286_at) / RFU MAGEB2 (11727129_at) / Fold change /veh MAGEB2 (11727129_at) / RFU TMEM200A (11744735_a_at) / Fold change /veh TMEM200A (11744735_a_at) / RFU CCDC152 (11751479_a_at) / Fold change /veh CCDC152 (11751479_a_at) / RFU FAM211A (11726209_a_at) / Fold change /veh FAM211A (11726209_a_at) / RFU RGS16 (11746705_a_at) / Fold change /veh RGS16 (11746705_a_at) / RFU VCAN (11755009_s_at) / Fold change /veh VCAN (11755009_s_at) / RFU RHOB (11743442_s_at) / Fold change /veh RHOB (11743442_s_at) / RFU RGS16 (11720943_a_at) / Fold change /veh RGS16 (11720943_a_at) / RFU RGS16 (11720944_at) / Fold change /veh RGS16 (11720944_at) / RFU, VPS4B / Fold change vs veh, VPS4B / RFU, CREB1 / Fold change vs veh, CREB1 / RFU, DNAJC13 / Fold change vs veh, DNAJC13 / RFU, GNAQ / Fold change vs veh, GNAQ / RFU, CDK5R1 / Fold change vs veh, CDK5R1 / RFU, ZRANB3 / Fold change vs veh, ZRANB3 / RFU, CUL4A / Fold change vs veh, CUL4A / RFU, CCNY / Fold change vs veh, CCNY / RFU, UFL1 / Fold change vs veh, UFL1 / RFU, COG3 / Fold change vs veh, COG3 / RFU, DIAPH2 / Fold change vs veh, DIAPH2 / RFU, SKA2 / Fold change vs veh, SKA2 / RFU, AFF3 / Fold change vs veh, AFF3 / RFU, LMF1 / Fold change vs veh, LMF1 / RFU, IPO11 / Fold change vs veh, IPO11 / RFU, DFFB / Fold change vs veh, DFFB / RFU, FOXP1 / Fold change vs veh, FOXP1 / RFU, CARD8 / Fold change vs veh, CARD8 / RFU, STRN3 / Fold change vs veh, STRN3 / RFU, ADK / Fold change vs veh, ADK / RFU, RASSF2 / Fold change vs veh, RASSF2 / RFU, WIPF1 / Fold change vs veh, WIPF1 / RFU, LARP1B / Fold change vs veh, LARP1B / RFU, RASA1 / Fold change vs veh, RASA1 / RFU, RB1 / Fold change vs veh, RB1 / RFU, PPFIA1 / Fold change vs veh, PPFIA1 / RFU, MAT2A / Fold change vs veh, MAT2A / RFU, CCT5 / Fold change vs veh, CCT5 / RFU, WDR92 / Fold change vs veh, WDR92 / RFU, CUX1 / Fold change vs veh, CUX1 / RFU, TTC7A / Fold change vs veh, TTC7A / RFU, TMEM135 / Fold change vs veh, TMEM135 / RFU, DEPTOR / Fold change vs veh, DEPTOR / RFU, CPM / Fold change vs veh, CPM / RFU, DNAJB6 / Fold change vs veh, DNAJB6 / RFU, CACNA2D3 / Fold change vs veh, CACNA2D3 / RFU, DTX4 / Fold change vs veh, DTX4 / RFU, TFCP2 / Fold change vs veh, TFCP2 / RFU, GMCL1 /// GMCL1P1 / Fold change vs veh, GMCL1 /// GMCL1P1 / RFU, AEBP2 / Fold change vs veh, AEBP2 / RFU, SNHG1 /// SNORD22 /// SNORD25 /// SNORD26 /// SNORD27 /// SNORD28 /// SNORD29 /// SNORD31 / Fold change vs veh, SNHG1 /// SNORD22 /// SNORD25 /// SNORD26 /// SNORD27 /// SNORD28 /// SNORD29 /// SNORD31 / Fold change (Aza/veh), C12orf56 (ProbeSet 11735607_a_at) / Fold change (ACY-1035/veh), C12orf56 (ProbeSet 11735607_a_at) / Fold change (Aza/veh), FGFR1OP (ProbeSet 11751329_s_at) / Fold change (ACY-1035/veh), FGFR1OP (ProbeSet 11751329_s_at) / Fold change (Aza/veh), VPS36 (ProbeSet 11739960_a_at) / Fold change (ACY-1035/veh), VPS36 (ProbeSet 11739960_a_at) / RFU SYPL1 (11715823_x_at) / Fold change /veh SYPL1 (11715823_x_at) / RFU IGFBP7 (11715501_s_at) / Fold change /veh IGFBP7 (11715501_s_at) / RFU REEP3 (11722064_at) / Fold change /veh REEP3 (11722064_at) / RFU IGLL1 (11728026_x_at) / Fold change /veh IGLL1 (11728026_x_at): dose or concentration left out as unconfirmed
Conditions: ProbeSet 11720566_at; LIST D

Nc1ncn([C@@H]2O[C@H](CO)[C@@H](O)[C@H]2O)c(=O)n1 [azacitidine]
RFU, BCAT1: 650.05 RFU
